Data published in patent US10071984B2, “Histone demethylase inhibitors” (Celgene Quanticel Research, Inc., priority 2014, dated 2018).

What was measured:
Assay type in all cases: biochemical
[1] = target: FBXL10 (Homo sapiens (Human), UniProt Q8NHM5); assay: FBXL10 in vitro enzyme inhibition assay (AlphaScreen); conditions: 0.3 nM FBXL10, H3K36me2-biotin peptide
Text: (§1) This assay determines the ability of a test compound to inhibit FBXL11, FBXL10, and PHF8 demethylase activity. Baculovirus expressed FBXL11 (GenBank Accession #NM_012308, AA1-1162) was purchased from BPS Bioscience (Cat#50102). Baculovirus expressed FBXL10 (GenBank Accession #NM_032590, AA 1-650) was purchased from BPS Bioscience (Cat #50120). Baculovirus expressed PHF8 (GenBank Accession NP_055922.1) was purchased from Active Motif (Cat#31435).
(§2) The ability of test compounds to inhibit the activity of FBXL10 was determined in 384-well plate format under the following reaction conditions: 0.3 nM FBXL10, 30 nM H3K36me2-biotin labeled peptide (Anaspec cat #64442), 0.2 μM alpha-ketoglutaric acid in assay buffer of 50 mM HEPES, pH7.3, 0.005% Brij35, 0.5 mM TCEP, 0.2 mg/ml BSA, 50 μM sodium L-ascorbate, 5 μM ammonium iron(II) sulfate. Reaction product is determined quantitatively by AlphaScreen detection after the addition of detection reagents anti-H3K36me1 antibody, AlphaScreen® Streptavidin-coated Donor beads, and AlphaScreen® Protein A Acceptor beads in 50 mM HEPES, pH7.3, 10 mM NaCl, 0.005% Brij35, 5 mM EDTA, 2 mg/ml BSA to final 10 μg/ml beads.
(§3) The assay reaction was initiated by the following: 3 μl of the mixture of 90 nM H3K36me2-biotin labeled peptide and 0.6 μM alpha-ketoglutaric acid with 3 μl of 11-point serial diluted inhibitor in 3% DMSO are added to each well of 384 well Proxiplate (Perkin Elmer), followed by the addition of 3 μl of 0.9 nM FBXL10 to initiate the reaction. The reaction mixture is incubated at room temperature for 1 hour, and terminated by the addition of 3 μl of appropriate dilution of anti H3K36me1 antibody in 50 mM HEPES, pH7.3, 10 mM NaCl, 0.005% Brij35, 5 mM EDTA, 2 mg/ml BSA. Plates will then incubated at room temperature for 40 minutes, followed by addition of 3 ul of 50 μg/ml AlphaScreen® Streptavidin-coated Donor beads and AlphaScreen® Protein A Acceptor beads in 50 mM HEPES, pH7.3, 10 mM NaCl, 0.005% Brij35, 5 mM EDTA, 2 mg/ml BSA. Plates will then be read by EnVision Multilabel Reader in AlphaScreen mode after minimum 2 hour incubation at room temperature. The AlphaScreen signal for each well is used to determine inhibition constant (IC50).
(§4) The ability of the compounds disclosed herein to inhibit demethylase activity was quantified and the respective IC50 value was determined.

[2] = target: FBXL11 (Homo sapiens (Human), UniProt Q9Y2K7); assay: FBXL11 in vitro enzyme inhibition assay (AlphaScreen); conditions: 0.15 nM FBXL11, H3K36me2-biotin peptide
Text: as §1
as §2, with “FBXL11” for “FBXL10”, “0.15” for “0.3”, “FBXL11,” for “FBXL10,”
as §3, with “0.45” for “0.9”, “FBXL11” for “FBXL10”
The ability of the compounds disclosed herein to inhibit demethylase activity was quantified and the respective IC50 value was determined. Table 3 provides the IC50 values of various compounds disclosed herein.

[3] = target: PHF8 (Homo sapiens (Human), UniProt Q9UPP1); assay: PHF8 in vitro enzyme inhibition assay (TR-FRET); conditions: 3 nM PHF8, H3K9me1-biotin peptide
Text: as §1
The ability of test compounds to inhibit the activity of PHF8 was determined in 384-well plate format under the following reaction conditions: 3 nM PHF8, 200 nM H3K9me1-biotin labeled peptide (Anaspec cat #64358), 0.5 μM alpha-ketoglutaric acid in assay buffer of 50 mM HEPES, pH7.3, 0.005% Brij35, 0.5 mM TCEP, 0.2 mg/ml BSA, 50 μM sodium L-ascorbate, and 5 μM ammonium iron(II) sulfate. Reaction product was determined quantitatively by TR-FRET after the addition of detection reagent Phycolink Streptavidin-allophycocyanin (Prozyme) and Europium-anti-unmodified-histone H3 lysine 9/lysine27 (H3K9/K27) antibody (PerkinElmer) in the presence of 5 mM EDTA in LANCE detection buffer (PerkinElmer) at a final concentration of 25 nM and 0.5 nM, respectively.
The assay reaction was initiated by the following: 2 μl of the mixture of 600 nM H3K9me1-biotin labeled peptide and 1.5 μM alpha-ketoglutaric acid with 2 μl of 11-point serial diluted inhibitor in 3% DMSO were added to each well of the plate, followed by the addition of 2 μl of 9 nM PHF8 to initiate the reaction. The reaction mixture was incubated at room temperature for 15 minutes, and terminated by the addition of 6 μl of 5 mM EDTA in LANCE detection buffer containing 50 nM Phycolink Streptavidin-allophycocyanin and 1 nM Europium-anti-unmodified H3K9/K27 antibody. Plates were read by EnVision Multilabel Reader in TR-FRET mode (excitation at 320 nm, emission at 615 nm and 665 nm) after 1 hour incubation at room temperature. A ratio was calculated (665/615) for each well and fitted to determine inhibition constant (IC50).
as §4

Sequence of FBXL11 (Q9Y2K7 whole entry): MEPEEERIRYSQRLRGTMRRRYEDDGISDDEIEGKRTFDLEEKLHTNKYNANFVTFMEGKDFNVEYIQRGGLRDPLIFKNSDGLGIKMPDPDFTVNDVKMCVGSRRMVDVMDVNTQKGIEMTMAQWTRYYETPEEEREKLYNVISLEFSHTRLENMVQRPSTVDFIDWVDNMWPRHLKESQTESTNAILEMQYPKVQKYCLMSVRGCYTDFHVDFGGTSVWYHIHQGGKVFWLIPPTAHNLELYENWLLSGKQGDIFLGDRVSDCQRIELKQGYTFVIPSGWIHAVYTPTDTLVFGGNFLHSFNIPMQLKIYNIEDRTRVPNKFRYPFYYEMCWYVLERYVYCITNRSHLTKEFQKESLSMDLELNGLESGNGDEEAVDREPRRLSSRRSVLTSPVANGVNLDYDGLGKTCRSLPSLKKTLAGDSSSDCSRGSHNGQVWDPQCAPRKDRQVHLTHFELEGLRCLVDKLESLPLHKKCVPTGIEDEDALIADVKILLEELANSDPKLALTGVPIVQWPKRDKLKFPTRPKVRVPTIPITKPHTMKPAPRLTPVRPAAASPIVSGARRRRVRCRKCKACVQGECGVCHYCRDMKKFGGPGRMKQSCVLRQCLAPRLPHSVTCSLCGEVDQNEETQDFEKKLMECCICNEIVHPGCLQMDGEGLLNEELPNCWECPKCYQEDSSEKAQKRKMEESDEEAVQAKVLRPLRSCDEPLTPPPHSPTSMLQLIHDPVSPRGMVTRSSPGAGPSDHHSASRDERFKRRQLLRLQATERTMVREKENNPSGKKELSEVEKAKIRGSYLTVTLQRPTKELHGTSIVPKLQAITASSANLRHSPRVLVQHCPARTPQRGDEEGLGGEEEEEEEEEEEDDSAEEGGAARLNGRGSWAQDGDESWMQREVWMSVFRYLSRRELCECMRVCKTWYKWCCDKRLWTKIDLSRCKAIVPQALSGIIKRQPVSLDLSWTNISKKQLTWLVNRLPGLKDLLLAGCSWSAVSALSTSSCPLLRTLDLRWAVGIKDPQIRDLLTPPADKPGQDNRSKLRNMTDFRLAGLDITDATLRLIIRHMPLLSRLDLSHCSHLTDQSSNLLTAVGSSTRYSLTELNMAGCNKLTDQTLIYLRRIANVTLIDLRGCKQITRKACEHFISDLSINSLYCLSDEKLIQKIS
Sequence of PHF8 (Q9UPP1 37-1060): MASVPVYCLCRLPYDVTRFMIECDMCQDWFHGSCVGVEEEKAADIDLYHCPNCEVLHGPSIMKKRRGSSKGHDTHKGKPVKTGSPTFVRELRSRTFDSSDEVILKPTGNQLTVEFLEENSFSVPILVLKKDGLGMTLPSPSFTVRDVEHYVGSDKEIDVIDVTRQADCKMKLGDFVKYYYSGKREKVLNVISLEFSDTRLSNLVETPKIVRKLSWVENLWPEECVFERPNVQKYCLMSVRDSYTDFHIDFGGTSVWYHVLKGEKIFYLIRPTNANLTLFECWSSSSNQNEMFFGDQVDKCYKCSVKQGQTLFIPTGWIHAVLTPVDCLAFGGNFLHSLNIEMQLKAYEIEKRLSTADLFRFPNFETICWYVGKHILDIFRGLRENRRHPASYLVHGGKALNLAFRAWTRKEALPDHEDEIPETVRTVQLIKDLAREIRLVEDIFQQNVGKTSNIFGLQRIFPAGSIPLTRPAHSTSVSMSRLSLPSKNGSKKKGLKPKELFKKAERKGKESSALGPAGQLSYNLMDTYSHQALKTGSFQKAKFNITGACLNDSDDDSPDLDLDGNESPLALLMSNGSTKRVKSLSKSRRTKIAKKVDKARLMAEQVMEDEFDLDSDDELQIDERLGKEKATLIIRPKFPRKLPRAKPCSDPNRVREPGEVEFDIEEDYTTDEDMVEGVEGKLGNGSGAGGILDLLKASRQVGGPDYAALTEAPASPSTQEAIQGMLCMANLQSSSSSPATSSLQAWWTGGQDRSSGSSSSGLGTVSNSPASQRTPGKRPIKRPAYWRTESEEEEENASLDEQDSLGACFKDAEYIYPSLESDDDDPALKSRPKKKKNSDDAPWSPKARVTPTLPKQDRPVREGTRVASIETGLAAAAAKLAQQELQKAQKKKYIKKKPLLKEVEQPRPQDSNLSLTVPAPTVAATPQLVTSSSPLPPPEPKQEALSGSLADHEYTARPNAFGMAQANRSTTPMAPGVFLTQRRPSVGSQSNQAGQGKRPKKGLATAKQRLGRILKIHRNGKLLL
Sequence of FBXL10 (Q8NHM5 1-650): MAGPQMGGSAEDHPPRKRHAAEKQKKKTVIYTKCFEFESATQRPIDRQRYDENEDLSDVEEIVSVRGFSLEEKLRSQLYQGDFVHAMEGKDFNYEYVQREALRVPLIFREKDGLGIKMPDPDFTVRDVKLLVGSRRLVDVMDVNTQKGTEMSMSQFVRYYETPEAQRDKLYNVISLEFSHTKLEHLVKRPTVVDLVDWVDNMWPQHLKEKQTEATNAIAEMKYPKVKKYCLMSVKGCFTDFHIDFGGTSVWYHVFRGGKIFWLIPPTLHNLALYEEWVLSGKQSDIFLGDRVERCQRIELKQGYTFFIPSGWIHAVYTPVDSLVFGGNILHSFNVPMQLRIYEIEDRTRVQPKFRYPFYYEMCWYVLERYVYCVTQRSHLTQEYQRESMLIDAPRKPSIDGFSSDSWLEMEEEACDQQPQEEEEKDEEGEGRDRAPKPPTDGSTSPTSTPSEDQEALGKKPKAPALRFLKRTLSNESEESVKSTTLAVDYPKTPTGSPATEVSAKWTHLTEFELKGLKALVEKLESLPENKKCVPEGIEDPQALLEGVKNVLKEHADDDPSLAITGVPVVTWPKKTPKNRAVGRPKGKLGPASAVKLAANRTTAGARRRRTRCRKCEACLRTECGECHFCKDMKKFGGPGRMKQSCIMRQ

| SMILES | IC50 [1] [nM] | IC50 [2] [nM] | IC50 [3] [nM] |
| --- | --- | --- | --- |
| Clc1ccccc1CCn1cnc(-c2cc(-c3c[nH]nn3)ccn2)c1 [Example 6, 2-[1-[2-(2-chlorophenyl)ethyl]imidazol-4-yl]-4-(1H-triazol-4-yl)pyridine] | ≤ 100 | ≤ 100 | ≤ 100 |
| Cn1cnc(-c2cc(-c3c[nH]nn3)ccn2)c1-c1ccc(F)cc1OCC1CC1 [Example 4, 2-[5-[2-(cyclopropylmethoxy)-4-fluorophenyl]-1-methylimidazol-4-yl]-4-(1H-triazol-4-yl)pyridine] | ≤ 100 | ≤ 100 | 1000 to 10000 |
| CC(c1ccccc1)n1cnc(-c2cc(-c3c[nH]nn3)ccn2)c1 (stereo not drawn) [Example 5, 2-[1-(1-phenylethyl)imidazol-4-yl]-4-(1H-triazol-4-yl)pyridine] | ≤ 100 | ≤ 100 | 100 to 1000 |

Results, then the compound that gave them:

| IC50 [1] [nM] | IC50 [2] [nM] | IC50 [3] [nM] | SMILES |
| --- | --- | --- | --- |
| ≤ 100 | ≤ 100 | 100 to 1000 | c1ccc2c(c1)CCCC2Cn1cnc(-c2cc(-c3c[nH]nn3)ccn2)c1 (stereo not drawn) [Example 8, 2-[1-(1,2,3,4-tetrahydronaphthalen-1-ylmethyl)imidazol-4-yl]-4-(1H-triazol-4-yl)pyridine] |
| ≤ 100 | ≤ 100 | 100 to 1000 | c1ccc2c(CCn3cnc(-c4cc(-c5c[nH]nn5)ccn4)c3)cccc2c1 [Example 23, 2-[1-(2-naphthalen-1-ylethyl)imidazol-4-yl]-4-(1H-triazol-4-yl)pyridine] |
